According to patent US10751274B1, “Fast-acting micelle nanoparticle and cosmetic composition comprising same” (FOREST COMPANY, priority 2017, dated 2020):

System: ICR mouse skin
Test: Mouse skin penetration experiment, Franz diffusion cell
Assay type: in vitro ADME, ICR outbred albino mice
Conditions: after 24 hr
Method: In order to evaluate the transdermal penetration rate of the micelle nanoparticles of Example 1, a mouse skin penetration experiment was performed through a Franz diffusion cell using the micelle nanoparticles as a sample. The mouse skin was extracted from the back of ICR outbred albino mice (12-week-old, about 50 g, females), which were killed by cervical dislocation. The subcutaneous fat was removed from the extracted skin (1.5 cm×1.5 cm) so that the skin was not hurt, and the dermis was used without being removed. The skin was fixed between the donor and the receptor phase so that the stratum corneum part of the back skin of the prepared ICR mice faced upwards.
The transepidermal area contacting the receptor phase was 0.6362 cm^2, and the receptor phase was a mixed solution of 2.0% HCO-60 (in 20% ethanol), showing the highest solubility in the preliminary experiments. 5 ml of the receptor phase was placed in a Franz diffusion cell, and the temperature was maintained at 37.0±0.5° C. using a constant-temperature water bath. Stirring to homogeneity was performed at 150 rpm for 24 hr. 0.5 ml of each sample was applied to the transepidermal surface of the donor, after which 0.75 ml of the receptor phase was collected every 8 hr (a total of 3 times) for 24 hr through a sampling port using a 1 ml syringe and stored in a 1.5 ml tube. Immediately after collection, supplementation with the same amount of the receptor solution was conducted. As such, the collected sample was analyzed through HPLC in order to quantify […] therein.
In order to measure the amount of PhS1P remaining on the skin, unpenetrated samples were washed three times with PBS immediately after taking the skin out of the diffusion cell. […] The ethanol was evaporated to dryness, after which PhS1P was dissolved again in 0.75 ml of ethanol, and the amount of PhS1P remaining on the skin was quantified through HPLC. […]

Structure (SMILES): CCCCCCCCCCCCCC[C@@H](O)[C@@H](O)[C@@H](N)COP(=O)(O)O [PhS1P solution, phytosphingosine-1-phosphate]
- amount of PhS1P remaining in the stratum corneum (tape stripping): 1.81 µg
- amount of PhS1P that penetrated the skin (final cumulative) (receptor phase sampled every 8 hr, 0.5 ml sample): 2.52 µg
- amount of PhS1P present in the skin (tape-stripped skin): 2.72 µg
